Results as given in patent publication US20150011528A1, “PHENYLIMIDE-CONTAINING BENZOTHIAZOLE DERIVATIVE OF ITS SALT AND PHARMACEUTICAL COMPOSITION COMPRISING THE SAME” (YUHAN CORPORATION, priority 2011, published 2015).

Tests used:
Assay type in all cases: cell-based
[1] = Cytotoxicity Study (WST); conditions: human; A549 cells, serum-free RPMI1640, test compounds 0.39˜100 μM, 5 hours + 2 hours WST, absorbance 450 nm
Experimental: A549 cells (Korean Cell Line Bank) was added to a 96-well plate in a concentration of 2×10^4 cells per well and then a RPMI1640 medium supplemented with 10% fetal bovine serum was added to each well. After culturing 24 hours, the medium was changed with a serum-free RPMI1640 medium and then test compounds (0.39˜100 μM) were treated. After culturing at 37° C. for 5 hours in a CO2 incubator, 10 μL of a WST reagent (Roche) was added to each well, which was then cultured for additional 2 hours. A microplate reader was used to measure the absorbance at 450 nm. From the absorbance values, each IC50 value was calculated by non-linear regression curve fit using the ‘GraphPad Prism” program.
The cytotoxicity study was performed, using the reduction of WST by the NADH produced by the electron transport system of mitochondria. […] Therefore, the compounds of the present invention have therapeutic activity against a disease associated with cancer cell metastasis through (i) selective inhibition against the binding between KRS and LR and (ii) inhibition of cell migration, rather than non-specific cytotoxicity.

[2] = system: A549 cells; assay: Cell Migration Assay (transwell, laminin); conditions: Homo sapiens, laminin 10 μg/mL in lower well, test compounds 0.39˜100 μM, 6 hours at 37° C.
In short: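 A549 cells in serum-free RPMI1640 migrated 6 h at 37 °C through 8.0 μm-pore polycarbonate membranes toward laminin (10 μg/mL), compound (0.39–100 μM) in both chambers. Migrated cells hematoxylin-stained, counted at three fields (×20); IC50 by non-linear regression.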

[3] = biological target: T1, interaction between the KRS protein and the laminin receptor (LR) (Homo sapiens, UniProt Q15046); assay: Yeast Two Hybrid inhibition of the interaction between the KRS protein and the laminin receptor (LR); conditions: 1 μL of 20 mM DMSO solution per 200 μL culture; 30° C., 6 days; absorbance 540 nm; non-treated control = 100%
T1 construct: expressed in transfected cells; host or cells: yeast EGY/SH cells
Experimental: The inhibitory activity against the interaction between the KRS protein and the laminin receptor (LR) was evaluated according to the Yeast Two Hybrid method described in WO2011/056021. According to the disclosures of WO2011/056021, we prepared a vector obtained by cloning the KRS gene in the LexA vector (Clontech) and a vector obtained by cloning the LR gene in the B42 vector (Clontech). The yeast cells, i.e., EGY/SH cells were co-transformed with the LexA-KRS vector and the B42-LR vector. The co-transformation was carried out using the Yeastmaker yeast transformation system2 kit (Clontech), according to the manufacturer's instruction. […] The cultured yeast cells were diluted with the said galactose medium, until the absorbance at 540 nm attains to about 0.15 to 0.2. The diluted culture (200 μL), containing the yeast cells, was added to each well of a 96-well plate. Each test compound was dissolved in dimethyl sulfoxide at a concentration of 20 mM and then the resulting solutions (1 μL) were added to each well. The plate was cultured at 30° C. for 6 days and then the absorbance of the each well was measured at 540 nm.
(§1) And also, specificity of the inhibitory activity was evaluated, using the yeast cells cotransformed with the LexA-KRS vector and the B42-AIMP2 vector; and the yeast cells co-transformed with the LexA-KRS vector and the B42-AIMP3 vector, which were respectively prepared according to WO2011/056021. The co-transformation was carried out using the Yeastmaker yeast transformation system2 kit (Clontech), according to the manufacturer's instruction. […] The cultured yeast cells were diluted with the said galactose medium, until the absorbance at 540 nm attains to about 0.15 to 0.2. The diluted culture (200 μL), containing the yeast cells, was added to each well of a 96-well plate. Each test compound was dissolved in dimethyl sulfoxide at a concentration of 20 mM and then the resulting solutions (1 μL) were added to each well. The plate was cultured at 30° C. for 6 days and then the absorbance of each well was measured at 540 nm. The respective yeast cell proliferation rates (%) in the treated samples were calculated in comparison with those of the non-treated control (100%) and the results thereof are shown in Table 1 below.
When KRS is bound to LR, the trans-activation domain is come close to the DNA-binding domain and the genes for synthesizing essential amino acids are expressed, which leads to normal growth of the transformed yeasts, thereby increasing the absorbance.

[4] = biological target: T2, binding between KRS and AIMP3 (Homo sapiens, UniProt Q15046); assay: Yeast Two Hybrid specificity test, LexA-KRS / B42-AIMP3 co-transformed yeast cells; conditions: 1 μL of 20 mM DMSO solution per 200 μL culture; 30° C., 6 days; absorbance 540 nm; non-treated control = 100%
T2 construct: expressed in transfected cells; host or cells: yeast cells (co-transformed)
Experimental: as §1

[5] = biological target: T3, binding between KRS and AIMP2 (Homo sapiens, UniProt Q15046); assay: Yeast Two Hybrid specificity test, LexA-KRS / B42-AIMP2 co-transformed yeast cells; conditions: 1 μL of 20 mM DMSO solution per 200 μL culture; 30° C., 6 days; absorbance 540 nm; non-treated control = 100%
T3 construct: expressed in transfected cells; host or cells: yeast cells (co-transformed)
Experimental: as §1

T3 sequence (Q15046 whole entry): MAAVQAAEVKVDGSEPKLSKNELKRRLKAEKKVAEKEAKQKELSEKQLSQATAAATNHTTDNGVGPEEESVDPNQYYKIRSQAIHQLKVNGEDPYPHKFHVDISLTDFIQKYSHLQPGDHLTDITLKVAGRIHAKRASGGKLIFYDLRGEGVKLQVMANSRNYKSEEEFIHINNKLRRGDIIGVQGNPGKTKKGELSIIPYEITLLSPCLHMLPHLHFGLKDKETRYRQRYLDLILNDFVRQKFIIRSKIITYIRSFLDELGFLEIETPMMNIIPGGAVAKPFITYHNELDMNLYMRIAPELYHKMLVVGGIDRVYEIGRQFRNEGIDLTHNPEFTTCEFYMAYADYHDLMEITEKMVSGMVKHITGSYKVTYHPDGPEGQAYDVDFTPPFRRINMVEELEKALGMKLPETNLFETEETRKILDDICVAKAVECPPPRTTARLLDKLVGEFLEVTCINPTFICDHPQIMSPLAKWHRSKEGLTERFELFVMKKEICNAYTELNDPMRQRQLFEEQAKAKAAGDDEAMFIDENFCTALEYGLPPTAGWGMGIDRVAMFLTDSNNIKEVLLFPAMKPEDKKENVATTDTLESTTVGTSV
T1 sequence (Q15046 whole entry): as above
T2 sequence (Q15046 whole entry): as above

## CCC(C(=O)O)n1c(=NC(=O)c2cccc(F)c2)sc2cc(F)c(F)cc21 (stereo not drawn) [Example 442, 2-(5,6-difluoro-2-((3-fluorobenzoyl)imino)benzo[d]thiazol-3(2H)-yl)butanoic acid]
[1]
  IC50 at 5 h: 361 µM
[2]
  IC50: 80 µM

## CCC(C(=O)O)n1c(=NC(=O)c2cc(F)cc(F)c2)sc2ccccc21 (stereo not drawn) [Example 78, 2-[2-(3,5-difluorobenzoylimino)benzo[d]thiazol-3(2H)-yl]butanoic acid]
[1]
  IC50 at 5 h: 636 µM
[2]
  IC50: 15.9 µM

## Cc1ccc(C(=O)N=c2sc3c(C(F)(F)F)cccc3n2C(C)C(=O)O)cc1 (stereo not drawn) [Example 98, 2-[2-(4-methylbenzoylimino)-7-(trifluoromethyl)benzo[d]thiazol-3(2H)-yl]propionic acid]
[1]
  IC50 at 5 h: 74.9 µM
[2]
  IC50: 5.2 µM

## CC(C(=O)O)n1c(=NC(=O)c2cccc(C(F)(F)F)c2)sc2c(Cl)cccc21 (stereo not drawn) [Example 308, 2-(7-chloro-2-((3-(trifluoromethyl)benzoyl)imino)benzo[d]thiazol-3(2H)-yl)propionic acid]
[1]
  IC50 at 5 h: 267 µM
[2]
  IC50: 6.6 µM

## CC(C(=O)O)n1c(=NC(=O)c2cccc(Cl)c2)sc2cc(F)c(C(F)(F)F)cc21 (stereo not drawn) [Example 388, 2-(2-((3-chlorobenzoyl)imino)-6-fluoro-5-(trifluoromethyl)benzo[d]thiazol-3(2H)-yl)propionic acid]
[1]
  IC50 at 5 h: 368 µM
[2]
  IC50: 37.4 µM

## COc1cccc2sc(=NC(=O)c3cccc(C(F)(F)F)c3)n(C(C)C(=O)O)c12 (stereo not drawn) [Example 283, 2-(4-methoxy-2-(3-(trifluoromethyl)benzoylimino)benzo[d]thiazol-3(2H)-yl)propionic acid]
[1]
  IC50 at 5 h: 108 µM
[2]
  IC50: 10 µM

## CCC(C(=O)O)n1c(=NC(=O)c2cccc(Cl)c2)sc2cc(OC(F)(F)F)ccc21 (stereo not drawn) [Example 176, 2-(2-((3-chlorobenzoyl)imino)-6-(trifluoromethoxy)benzo[d]thiazol-3(2H)-yl)butanoic acid]
[1]
  IC50 at 5 h: 247 µM
[2]
  IC50: 5.8 µM

## CCC(C(=O)O)n1c(=NC(=O)c2cccc(C(F)(F)F)c2)sc2cc(F)c(F)cc21 (stereo not drawn) [Example 293, 2-(5,6-difluoro-2-((3-(trifluoromethyl)benzoyl)imino)benzo[d]thiazol-3(2H)-yl)butanoic acid]
[1]
  IC50 at 5 h: 144 µM
[2]
  IC50: 1 µM

## CC(C(=O)O)n1c(=NC(=O)c2cccc(Cl)c2)sc2c(Cl)cccc21 (stereo not drawn) [Example 309, 2-(7-chloro-2-((3-chlorobenzoyl)imino)benzo[d]thiazol-3(2H)-yl)propionic acid]
[1]
  IC50 at 5 h: 134 µM
[3]
  Yeast cell proliferation rates KRS-LR (%): 14.5%
[4]
  Yeast cell proliferation rates KRS-AIMP3 (%): 101.4%
[2]
  IC50: 12.9 µM
[5]
  Yeast cell proliferation rates KRS-AIMP2 (%): 95.8%

## CCC(C(=O)O)n1c(=NC(=O)c2cccc(Cl)c2)sc2cc(F)c(F)cc21 (stereo not drawn) [Example 290, 2-(2-((3-chlorobenzoyl)imino)-5,6-difluorobenzo[d]thiazol-3(2H)-yl)butanoic acid]
[1]
  IC50 at 5 h: 172 µM
[3]
  Yeast cell proliferation rates KRS-LR (%): 35.1%
[4]
  Yeast cell proliferation rates KRS-AIMP3 (%): 99.0%
[2]
  IC50: 3.2 µM
[5]
  Yeast cell proliferation rates KRS-AIMP2 (%): 87.0%

## Cc1ccc(C(=O)N=c2sc3cc(C(F)(F)F)ccc3n2CC(=O)O)cc1 [Example 246, 2-(2-((4-methylbenzoyl)imino)-6-(trifluoromethyl)benzo[d]thiazol-3(2H)-yl)acetic acid]
[1]
  IC50 at 5 h: 245 µM
[2]
  IC50: 12 µM

## CCOc1ccc2c(c1)sc(=NC(=O)c1cccc(Cl)c1)n2C(CC)C(=O)O (stereo not drawn) [Example 56, 2-{2-[(3-chlorobenzoyl)imino]-6-ethoxybenzo[d]thiazol-3(2H)-yl}butanoic acid]
[1]
  IC50 at 5 h: 95.5 µM
[3]
  Yeast cell proliferation rates KRS-LR (%): 31.2%
[4]
  Yeast cell proliferation rates KRS-AIMP3 (%): 104.7%
[2]
  IC50: 2.7 µM
[5]
  Yeast cell proliferation rates KRS-AIMP2 (%): 103.3%

## CCC(C(=O)O)n1c(=NC(=O)c2ccc([N+](=O)[O-])cc2)sc2ccccc21 (stereo not drawn) [Example 81, 2-[2-(4-nitrobenzoylimino)benzo[d]thiazol-3(2H)-yl]butanoic acid]
[1]
  IC50 at 5 h: 828 µM

## CCC(C(=O)O)n1c2c(sc1=NC(=O)c1cccc(Cl)c1)CCCC2 (stereo not drawn) [Example 299, 2-(2-(3-chlorobenzoylimino)-4,5,6,7-tetrahydrobenzo[d]thiazol-3(2H)-yl)butanoic acid]
[1]
  IC50 at 5 h: 344 µM
[3]
  Yeast cell proliferation rates KRS-LR (%): 13.8%
[4]
  Yeast cell proliferation rates KRS-AIMP3 (%): 90.4%
[2]
  IC50: 7.9 µM
[5]
  Yeast cell proliferation rates KRS-AIMP2 (%): 92.0%

## O=C(O)Cn1c(=NC(=O)c2cccc(C(F)(F)F)c2)sc2ccccc21 [Example 125, 2-[2-(3-(trifluoromethyl)benzoylimino)benzo[d]thiazol-3(2H)-yl]acetic acid]
[1]
  IC50 at 5 h: 7490 µM
[2]
  IC50: 8.4 µM

## CC(C(=O)O)n1c(=NC(=O)c2cccc(Cl)c2)sc2cc(F)c(F)cc21 (stereo not drawn) [Example 289, 2-(2-((3-chlorobenzoyl)imino)-5,6-difluorobenzo[d]thiazol-3(2H)-yl)propionic acid]
[1]
  IC50 at 5 h: 877 µM
[2]
  IC50: 9.8 µM

## CCC(C(=O)O)n1c(=NC(=O)c2cccc(Cl)c2)sc2ccc(Cl)cc21 (stereo not drawn) [Example 361, 2-(5-chloro-2-((3-chlorobenzoyl)imino)benzo[d]thiazol-3(2H)-yl)butanoic acid]
[1]
  IC50 at 5 h: 581 µM
[3]
  Yeast cell proliferation rates KRS-LR (%): 34.6%
[4]
  Yeast cell proliferation rates KRS-AIMP3 (%): 108.4%
[2]
  IC50: 142 µM
[5]
  Yeast cell proliferation rates KRS-AIMP2 (%): 104.3%

## CCC(C(=O)O)n1c(=NC(=O)c2ccccc2)sc2ccccc21 (stereo not drawn) [Example 136, 2-[2-(benzoylimino)benzo[d]thiazol-3(2H)-yl]butanoic acid]
[1]
  IC50 at 5 h: 281 µM

## O=C(O)Cn1c(=NC(=O)c2cccc(C(F)(F)F)c2)sc2c(F)cccc21 [Example 356, 2-(7-fluoro-2-((3-(trifluoromethyl)benzoyl)imino)benzo[d]thiazol-3(2H)-yl)acetic acid]
[1]
  IC50 at 5 h: 1190 µM
[2]
  IC50: 40.9 µM
